Measurements as given in patent US20220202610A1, “CONTACT LENS WITH SUSTAINED RELEASE PROPERTY” (priority 2020, published 2022).

Legend:
[1] = Release of lens drug (menthol): drug loading, moist heat sterilization and release in saline, HPLC; type: physicochemical; conditions: 121° C., 30 minutes
Protocol: (§1) Sampling time point: 0, 2, 4 and 8 hours (N=3)
First group: P-2.5HPC7/P6k-38CL
(1) Single drug-loaded lens was placed in a 5 mL ampoule. 1 mL of saline was added as a release medium. The lens was placed in a shake oven (MS Hybridization Shaking Oven, MO-AOR, Major Science), and a drug release test was conducted under the operating parameters of 35° C. and 100 rpm. No release solution was replaced throughout. Sampling: the lens was taken out at each time point. The drug was extracted with ethanol (98 wt %). The drug content was analyzed by HPLC with RP-C18 column. After the lens was taken out, no drug release test was performed.
(2) The extraction method of menthol in the lens: one lens was taken out of the ampoule used for the release test. Lens surface moisture was fully absorbed with a lens cleaning paper. The one lens was immersed in 1 mL of ethanol (98 wt %) to stand for 8 hours to extract the drug. Then the drug content was analyzed by HPLC.

[2] = Release of lens drug (dexamethasone): drug loading, moist heat sterilization and release in saline, HPLC; type: physicochemical; conditions: 121° C., 30 minutes
Protocol: as §1
(1) Single drug-loaded lens was placed in a 5 mL ampoule. 1 mL of saline was added as a release medium. The lens was placed in a shake oven (MS Hybridization Shaking Oven, MO-AOR, Major Science), and a drug release test was conducted under the operating parameters of 35° C. and 100 rpm. The drug release solution was replaced with fresh saline every 2 hours.
(2) The drug content in the lens preservation solution and the drug content in the lens were analyzed by HPLC with RP-C18 column. The extraction method of drug (Dexamethasone, DEX) in the lens: one lens was taken out of the preservation solution. Lens surface moisture was fully absorbed with a lens cleaning paper. The one lens was immersed in 1 mL of methanol to stand for 8 hours to extract the drug. Then the drug content was analyzed by HPLC.

| SMILES | menthol in the lens preservation solution after the moist heat sterilization [1] | loss caused by the moist heat sterilization [2] |
| --- | --- | --- |
| CC1CCC(C(C)C)C(O)C1 (centres unmarked) [menthol] | most of the menthol in the lens preservation solution escapes | – |
| Cn1c(=O)c2c(ncn2C)n(C)c1=O [caffeine] | – | hardly causes the loss |
